Test results from BindingDB's records for doi:10.1016/0024-3205(94)00413-m (Sanofi Recherche, 1995).
Values joined by “and” are separate entries in the source; they are usually repeats but may differ in a detail not shown here. Equal values may be shown once.

Tests used:
Substance-K receptor [1] = molecular target: T1, Substance-K receptor (Mesocricetus auratus, UniProt P51144)
T1 sequence (P51144 whole entry): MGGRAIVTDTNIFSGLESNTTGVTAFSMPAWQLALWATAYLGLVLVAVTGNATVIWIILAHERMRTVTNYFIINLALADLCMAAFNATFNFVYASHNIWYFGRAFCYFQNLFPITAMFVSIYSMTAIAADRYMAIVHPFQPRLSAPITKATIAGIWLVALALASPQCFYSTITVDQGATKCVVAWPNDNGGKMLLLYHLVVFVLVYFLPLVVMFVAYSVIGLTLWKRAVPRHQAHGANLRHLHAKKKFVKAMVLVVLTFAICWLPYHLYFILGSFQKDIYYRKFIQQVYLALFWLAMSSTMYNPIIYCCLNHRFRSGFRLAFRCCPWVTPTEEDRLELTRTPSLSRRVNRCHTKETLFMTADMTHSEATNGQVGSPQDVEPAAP

Substance-P receptor = Substance-P receptor (Rattus norvegicus, UniProt P14600)
Chain of Substance-P receptor (P14600 whole entry): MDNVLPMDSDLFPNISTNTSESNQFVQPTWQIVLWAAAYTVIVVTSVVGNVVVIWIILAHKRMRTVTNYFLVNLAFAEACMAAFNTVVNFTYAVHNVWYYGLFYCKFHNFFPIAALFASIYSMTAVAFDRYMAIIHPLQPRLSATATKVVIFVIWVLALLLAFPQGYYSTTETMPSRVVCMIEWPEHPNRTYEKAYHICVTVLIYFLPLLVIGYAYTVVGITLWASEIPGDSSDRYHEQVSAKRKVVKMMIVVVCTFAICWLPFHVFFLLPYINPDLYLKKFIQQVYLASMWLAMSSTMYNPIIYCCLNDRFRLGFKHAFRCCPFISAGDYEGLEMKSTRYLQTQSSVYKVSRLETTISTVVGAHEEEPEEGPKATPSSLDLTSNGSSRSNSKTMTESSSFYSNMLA

Substance-K receptor [2] = molecular target: T2, Substance-K receptor (Rattus norvegicus, UniProt P16610)
T2 sequence (P16610 whole entry): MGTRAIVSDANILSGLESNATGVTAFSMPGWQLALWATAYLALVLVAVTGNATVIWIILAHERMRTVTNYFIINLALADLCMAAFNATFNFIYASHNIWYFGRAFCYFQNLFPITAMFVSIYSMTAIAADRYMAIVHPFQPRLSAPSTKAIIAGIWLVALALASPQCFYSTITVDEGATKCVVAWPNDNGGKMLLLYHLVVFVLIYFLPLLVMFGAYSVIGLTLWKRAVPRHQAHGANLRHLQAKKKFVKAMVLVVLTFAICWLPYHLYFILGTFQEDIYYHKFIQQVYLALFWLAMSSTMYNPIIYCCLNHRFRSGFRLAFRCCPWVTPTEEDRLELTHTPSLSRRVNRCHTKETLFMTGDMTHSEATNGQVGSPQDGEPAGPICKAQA

Substance-K receptor [3] = molecular target: T3, Substance-K receptor (Cavia porcellus, UniProt Q64077)
T3 sequence (Q64077 whole entry): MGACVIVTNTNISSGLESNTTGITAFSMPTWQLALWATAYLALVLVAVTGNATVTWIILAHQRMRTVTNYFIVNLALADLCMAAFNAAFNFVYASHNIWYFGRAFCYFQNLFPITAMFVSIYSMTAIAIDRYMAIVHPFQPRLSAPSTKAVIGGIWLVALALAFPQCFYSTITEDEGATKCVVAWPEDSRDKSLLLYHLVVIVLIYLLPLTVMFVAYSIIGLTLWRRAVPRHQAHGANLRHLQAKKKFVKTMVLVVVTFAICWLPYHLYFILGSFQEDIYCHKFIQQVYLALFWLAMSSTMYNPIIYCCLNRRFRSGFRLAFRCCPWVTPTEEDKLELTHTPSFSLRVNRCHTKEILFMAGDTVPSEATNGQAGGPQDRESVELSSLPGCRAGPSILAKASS

With CC(=O)N(C)C1(c2ccccc2)CCN(CCCC2(c3ccc(Cl)c(Cl)c3)CCCN(C(=O)c3ccccc3)C2)CC1 (centres undefined) [SR 142806] the Ki (Substance-K receptor [1]) was 2000 nM, the Ki (Substance-P receptor) was 2000 nM and the Ki (Substance-K receptor [2]) was 100 nM and 248 nM. The Ki (Substance-K receptor [3]) was 73 nM and 350 nM.
